Experimental data as given in patent US9944602B2, “Piperidinone herbicides” (E. I. DU PONT DE NEMOURS AND COMPANY, priority 2014, dated 2018).

What was measured:
Assay type in all cases: in vivo
[1] = test system: ragweed (common ragweed, Ambrosia elatior); experiment: Test A postemergence ragweed; settings: Ambrosia artemisiifolia, post-emergence, 240 h, 0 to 100 scale, 0 is no effect, 100 is complete control, read-out: Plant response rating, Ragweed; for pest or weed control at 125 g/ha: 125 g ai/ha; for pest or weed control at 500 g/ha: 500 g ai/ha
Outline: (§1)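 Greenhouse pot test: chemicals formulated with surfactant in non-phytotoxic solvent, sprayed on soil at seeding (pre) or on 1–2 leaf seedlings of 2–10 cm (post). Rating ~10 d later, visual, 0 = no effect to 100 = complete control, relative to untreated controls.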

[2] = test system: barnyardgrass (Echinochloa crus-galli); experiment: Test A postemergence barnyardgrass; settings: Echinochloa crus-galli, post-emergence, 240 h, 0 to 100 scale, 0 is no effect, 100 is complete control, read-out: Plant response rating, Barnyardgrass; for pest or weed control at 125 g/ha: 125 g ai/ha; for pest or weed control at 500 g/ha: 500 g ai/ha
Outline: as §1

[3] = test system: pigweed (Amaranthus retroflexus); experiment: Test A postemergence pigweed; settings: Amaranthus retroflexus, post-emergence, 240 h, 0 to 100 scale, 0 is no effect, 100 is complete control, read-out: Plant response rating, Pigweed; for pest or weed control at 125 g/ha: 125 g ai/ha; for pest or weed control at 500 g/ha: 500 g ai/ha
Outline: as §1

[4] = test system: foxtail, giant (giant foxtail, Setaria faberii); experiment: Test A preemergence foxtail, giant; settings: Setaria faberi, pre-emergence, 240 h, 0 to 100 scale, 0 no effect, 100 complete control, read-out: Foxtail, Giant plant response rating; for pest or weed control at 125 g/ha: 125 g ai/ha; for pest or weed control at 500 g/ha: 500 g ai/ha
Outline: as §1

corn (Zea mays) = experiment: Test A postemergence corn; settings: Zea mays, post-emergence, 240 h, 0 to 100 scale, 0 is no effect, 100 is complete control; for Corn plant response rating (crop injury, 0 = no effect, 100 = complete kill) at 125 g/ha: 125 g ai/ha; for Corn plant response rating (crop injury, 0 = no effect, 100 = complete kill) at 500 g/ha: 500 g ai/ha
Outline: as §1

rice (Oryza sativa) = experiment: Test B flooded paddy test rice; settings: Oryza sativa, Table B, Flood, 250 g ai/ha, scale 0 to 100, read-out: Plant response rating
Outline: (§2)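 Water-applied paddy treatment: compound dosed into 3 cm flood on 2-leaf plants, read visually versus controls after 13 to 15 d.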

[5] = test system: ryegrass, Italian (Italian ryegrass, Lolium multiflorum); experiment: Test A postemergence ryegrass, Italian; settings: Lolium multiflorum, post-emergence, 240 h, 0 to 100 scale, 0 is no effect, 100 is complete control, read-out: Plant response rating, Ryegrass, Italian; for pest or weed control at 125 g/ha: 125 g ai/ha; for pest or weed control at 500 g/ha: 500 g ai/ha
Outline: as §1

[6] = test system: ragweed (common ragweed, Ambrosia elatior); experiment: Test A preemergence ragweed; settings: Ambrosia artemisiifolia, pre-emergence, 240 h, 0 to 100 scale, 0 no effect, 100 complete control, read-out: Ragweed plant response rating; for pest or weed control at 125 g/ha: 125 g ai/ha; for pest or weed control at 500 g/ha: 500 g ai/ha
Outline: as §1

[7] = test system: barnyardgrass (Echinochloa crus-galli); experiment: Test B flooded paddy test barnyardgrass; settings: Echinochloa crus-galli, Table B, Flood, 250 g ai/ha, scale 0 to 100, read-out: Plant response rating
Outline: as §2

kochia (Kochia scoparia) [8] = experiment: Test A postemergence kochia; settings: Bassia scoparia, post-emergence, 240 h, 0 to 100 scale, 0 is no effect, 100 is complete control, read-out: Plant response rating, Kochia; for pest or weed control at 125 g/ha: 125 g ai/ha; for pest or weed control at 500 g/ha: 500 g ai/ha
Outline: as §1

[9] = test system: ryegrass, Italian (Italian ryegrass, Lolium multiflorum); experiment: Test A preemergence ryegrass, Italian; settings: Lolium multiflorum, pre-emergence, 240 h, 0 to 100 scale, 0 no effect, 100 complete control, read-out: Ryegrass, Italian plant response rating; for pest or weed control at 125 g/ha: 125 g ai/ha; for pest or weed control at 500 g/ha: 500 g ai/ha
Outline: as §1

[10] = test system: wheat (Triticum aestivum); experiment: Test A postemergence wheat; settings: Triticum aestivum, post-emergence, 240 h, 0 to 100 scale, 0 is no effect, 100 is complete control, read-out: Plant response rating, Wheat; for plant injury at 125 g/ha: 125 g ai/ha; for plant injury at 500 g/ha: 500 g ai/ha
Outline: as §1

[11] = test system: pigweed (Amaranthus retroflexus); experiment: Test A preemergence pigweed; settings: Amaranthus retroflexus, pre-emergence, 240 h, 0 to 100 scale, 0 no effect, 100 complete control, read-out: Pigweed plant response rating; for pest or weed control at 125 g/ha: 125 g ai/ha; for pest or weed control at 500 g/ha: 500 g ai/ha
Outline: as §1

[12] = test system: galium (catchweed bedstraw, Galium aparine); experiment: Test A postemergence galium; settings: Galium, post-emergence, 240 h, 0 to 100 scale, 0 is no effect, 100 is complete control, read-out: Plant response rating, Galium; for pest or weed control at 125 g/ha: 125 g ai/ha; for pest or weed control at 500 g/ha: 500 g ai/ha
Outline: as §1

[13] = test system: sedge, umbrella (small-flower umbrella sedge, Cyperus difformis); experiment: Test B flooded paddy test sedge, umbrella; settings: Cyperus difformis, Table B, Flood, 250 g ai/ha, scale 0 to 100, read-out: Plant response rating
Outline: as §2

[14] = test system: ducksalad (Heteranthera limosa); experiment: Test B flooded paddy test ducksalad; settings: Heteranthera limosa, Table B, Flood, 250 g ai/ha, scale 0 to 100, read-out: Plant response rating
Outline: as §2

[15] = test system: foxtail, giant (giant foxtail, Setaria faberii); experiment: Test A postemergence foxtail, giant; settings: Setaria faberi, post-emergence, 240 h, 0 to 100 scale, 0 is no effect, 100 is complete control, read-out: Plant response rating, Foxtail, Giant; for pest or weed control at 125 g/ha: 125 g ai/ha; for pest or weed control at 500 g/ha: 500 g ai/ha
Outline: as §1

[16] = test system: blackgrass (Alopecurus myosuroides); experiment: Test A postemergence blackgrass; settings: Alopecurus myosuroides, post-emergence, 240 h, 0 to 100 scale, 0 is no effect, 100 is complete control, read-out: Plant response rating, Blackgrass; for pest or weed control at 125 g/ha: 125 g ai/ha; for pest or weed control at 500 g/ha: 500 g ai/ha
Outline: as §1

kochia (Kochia scoparia) [17] = experiment: Test A preemergence kochia; settings: Bassia scoparia, pre-emergence, 240 h, 0 to 100 scale, 0 no effect, 100 complete control, read-out: Kochia plant response rating; for pest or weed control at 125 g/ha: 125 g ai/ha; for pest or weed control at 500 g/ha: 500 g ai/ha
Outline: as §1

[18] = test system: barnyardgrass (Echinochloa crus-galli); experiment: Test A preemergence barnyardgrass; settings: Echinochloa crus-galli, pre-emergence, 240 h, 0 to 100 scale, 0 no effect, 100 complete control, read-out: Barnyardgrass plant response rating; for pest or weed control at 125 g/ha: 125 g ai/ha; for pest or weed control at 500 g/ha: 500 g ai/ha
Outline: as §1

## CN1CC[C@H](c2ccc(F)cc2)[C@@H](C(=O)Nc2cccc(F)c2F)C1=O [Compound 52, (3S,4S)—N-(2,3-difluorophenyl)-4-(4-fluorophenyl)-1-methyl-2-oxo-3-piperidinecarboxamide]
[1]
  pest or weed control at 125 g/ha: 0%
  pest or weed control at 500 g/ha: 0%
[2]
  pest or weed control at 125 g/ha: 70%
  pest or weed control at 500 g/ha: 90%
[3]
  pest or weed control at 125 g/ha: 0%
  pest or weed control at 500 g/ha: 0%
[4]
  pest or weed control at 125 g/ha: 90%
  pest or weed control at 500 g/ha: 90%
Corn (Zea mays)
  Corn plant response rating (crop injury, 0 = no effect, 100 = complete kill) at 125 g/ha: 0%
  Corn plant response rating (crop injury, 0 = no effect, 100 = complete kill) at 500 g/ha: 10%
Rice (Oryza sativa)
  plant injury at 250 g/ha: 0%
[5]
  pest or weed control at 125 g/ha: 0%
  pest or weed control at 500 g/ha: 20%
[6]
  pest or weed control at 125 g/ha: 20%
  pest or weed control at 500 g/ha: 30%
[7]
  pest or weed control at 250 g/ha: 30%
Kochia (Kochia scoparia) [8]
  pest or weed control at 125 g/ha: 0%
  pest or weed control at 500 g/ha: 20%
[9]
  pest or weed control at 125 g/ha: 20%
  pest or weed control at 500 g/ha: 30%
[10]
  plant injury at 125 g/ha: 0%
  plant injury at 500 g/ha: 20%
[11]
  pest or weed control at 125 g/ha: 30%
  pest or weed control at 500 g/ha: 80%
[12]
  pest or weed control at 125 g/ha: 0%
  pest or weed control at 500 g/ha: 50%
[13]
  pest or weed control at 250 g/ha: 0%
[14]
  pest or weed control at 250 g/ha: 100%
[15]
  pest or weed control at 125 g/ha: 80%
  pest or weed control at 500 g/ha: 80%
[16]
  pest or weed control at 125 g/ha: 0%
  pest or weed control at 500 g/ha: 0%
Kochia (Kochia scoparia) [17]
  pest or weed control at 125 g/ha: 0%
  pest or weed control at 500 g/ha: 20%
[18]
  pest or weed control at 125 g/ha: 90%
  pest or weed control at 500 g/ha: 90%

## O=C1NCC[C@H](c2cccc(Cl)c2)[C@H]1C(=O)Nc1cccc(F)c1F [Compound 42, (3R,4S)-4-(3-chlorophenyl)-N-(2,3-difluorophenyl)-2-oxo-3-piperidinecarboxamide]
[1]
  pest or weed control at 125 g/ha: 0%
  pest or weed control at 500 g/ha: 0%
[2]
  pest or weed control at 125 g/ha: 80%
  pest or weed control at 500 g/ha: 90%
[3]
  pest or weed control at 125 g/ha: 0%
  pest or weed control at 500 g/ha: 0%
[4]
  pest or weed control at 125 g/ha: 90%
  pest or weed control at 500 g/ha: 90%
Corn (Zea mays)
  Corn plant response rating (crop injury, 0 = no effect, 100 = complete kill) at 125 g/ha: 10%
  Corn plant response rating (crop injury, 0 = no effect, 100 = complete kill) at 500 g/ha: 60%
Rice (Oryza sativa)
  plant injury at 250 g/ha: 0%
[5]
  pest or weed control at 125 g/ha: 40%
  pest or weed control at 500 g/ha: 50%
[6]
  pest or weed control at 125 g/ha: 0%
  pest or weed control at 500 g/ha: 0%
[7]
  pest or weed control at 250 g/ha: 75%
Kochia (Kochia scoparia) [8]
  pest or weed control at 125 g/ha: 0%
  pest or weed control at 500 g/ha: 30%
[9]
  pest or weed control at 125 g/ha: 40%
  pest or weed control at 500 g/ha: 60%
[10]
  plant injury at 125 g/ha: 0%
  plant injury at 500 g/ha: 60%
[11]
  pest or weed control at 125 g/ha: 0%
  pest or weed control at 500 g/ha: 10%
[12]
  pest or weed control at 125 g/ha: 0%
  pest or weed control at 500 g/ha: 10%
[13]
  pest or weed control at 250 g/ha: 0%
[14]
  pest or weed control at 250 g/ha: 95%
[15]
  pest or weed control at 125 g/ha: 90%
  pest or weed control at 500 g/ha: 90%
[16]
  pest or weed control at 125 g/ha: 40%
  pest or weed control at 500 g/ha: 70%
Kochia (Kochia scoparia) [17]
  pest or weed control at 125 g/ha: 0%
  pest or weed control at 500 g/ha: 0%
[18]
  pest or weed control at 125 g/ha: 90%
  pest or weed control at 500 g/ha: 90%
